Data as given in ChEMBL document CHEMBL4507269, “Data for DCP probe BAY-386” (2021).

Columns and labels:
[1] = target: Mitogen-activated protein kinase kinase kinase 4 (Homo sapiens) (UniProt Q9Y6R4); details: Compound concentration 1000.0 nM
[2] = tested on: Tyrosine-protein kinase ABL1 (Homo sapiens), P00519 [F317I]; details: Compound concentration 1000.0 nM
[3] = target: Dual specificity mitogen-activated protein kinase kinase 2 (Homo sapiens) (UniProt P36507); details: Compound concentration 1000.0 nM
[4] = target: Mitogen-activated protein kinase kinase kinase 19 (Homo sapiens) (UniProt Q56UN5); details: Compound concentration 1000.0 nM
[5] = tested on: Tyrosine-protein kinase ABL1 (Homo sapiens), P00519 [Q252H]; details: Compound concentration 1000.0 nM
[6] = target: Insulin receptor-related protein (Homo sapiens) (UniProt P14616); details: Compound concentration 1000.0 nM
[7] = target: Phosphatidylinositol 4-phosphate 3-kinase C2 domain-containing subunit beta (Homo sapiens) (UniProt O00750); details: Compound concentration 1000.0 nM
[8] = target: Histamine H4 receptor (Homo sapiens) (UniProt Q9H3N8); details: Compound concentration 10.0 uM
Sequence of Histamine H4 receptor (Homo sapiens) (Q9H3N8 whole entry): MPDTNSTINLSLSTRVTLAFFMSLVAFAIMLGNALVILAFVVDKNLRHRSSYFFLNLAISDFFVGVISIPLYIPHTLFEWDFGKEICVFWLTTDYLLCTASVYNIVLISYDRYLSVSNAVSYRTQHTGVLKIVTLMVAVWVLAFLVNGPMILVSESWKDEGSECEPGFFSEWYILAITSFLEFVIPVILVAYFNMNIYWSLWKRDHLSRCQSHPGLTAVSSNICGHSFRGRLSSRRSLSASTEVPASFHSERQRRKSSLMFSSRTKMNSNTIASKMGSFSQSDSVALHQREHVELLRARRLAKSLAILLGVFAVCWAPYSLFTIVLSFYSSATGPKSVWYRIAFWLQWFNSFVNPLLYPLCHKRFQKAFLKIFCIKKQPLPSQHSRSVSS

[9] = target: Serine/threonine-protein kinase MARK1 (Homo sapiens) (UniProt Q9P0L2); details: Compound concentration 1000.0 nM
[10] = target: Cyclin-dependent kinase 19 (Homo sapiens) (UniProt Q9BWU1); details: Compound concentration 1000.0 nM
[11] = tested on: Tyrosine-protein kinase ABL1 (Homo sapiens), P00519 [M351T]; details: Compound concentration 1000.0 nM
[12] = target: Ephrin type-A receptor 8 (Homo sapiens) (UniProt P29322); details: Compound concentration 1000.0 nM
Sequence of Ephrin type-A receptor 8 (Homo sapiens) (P29322 whole entry): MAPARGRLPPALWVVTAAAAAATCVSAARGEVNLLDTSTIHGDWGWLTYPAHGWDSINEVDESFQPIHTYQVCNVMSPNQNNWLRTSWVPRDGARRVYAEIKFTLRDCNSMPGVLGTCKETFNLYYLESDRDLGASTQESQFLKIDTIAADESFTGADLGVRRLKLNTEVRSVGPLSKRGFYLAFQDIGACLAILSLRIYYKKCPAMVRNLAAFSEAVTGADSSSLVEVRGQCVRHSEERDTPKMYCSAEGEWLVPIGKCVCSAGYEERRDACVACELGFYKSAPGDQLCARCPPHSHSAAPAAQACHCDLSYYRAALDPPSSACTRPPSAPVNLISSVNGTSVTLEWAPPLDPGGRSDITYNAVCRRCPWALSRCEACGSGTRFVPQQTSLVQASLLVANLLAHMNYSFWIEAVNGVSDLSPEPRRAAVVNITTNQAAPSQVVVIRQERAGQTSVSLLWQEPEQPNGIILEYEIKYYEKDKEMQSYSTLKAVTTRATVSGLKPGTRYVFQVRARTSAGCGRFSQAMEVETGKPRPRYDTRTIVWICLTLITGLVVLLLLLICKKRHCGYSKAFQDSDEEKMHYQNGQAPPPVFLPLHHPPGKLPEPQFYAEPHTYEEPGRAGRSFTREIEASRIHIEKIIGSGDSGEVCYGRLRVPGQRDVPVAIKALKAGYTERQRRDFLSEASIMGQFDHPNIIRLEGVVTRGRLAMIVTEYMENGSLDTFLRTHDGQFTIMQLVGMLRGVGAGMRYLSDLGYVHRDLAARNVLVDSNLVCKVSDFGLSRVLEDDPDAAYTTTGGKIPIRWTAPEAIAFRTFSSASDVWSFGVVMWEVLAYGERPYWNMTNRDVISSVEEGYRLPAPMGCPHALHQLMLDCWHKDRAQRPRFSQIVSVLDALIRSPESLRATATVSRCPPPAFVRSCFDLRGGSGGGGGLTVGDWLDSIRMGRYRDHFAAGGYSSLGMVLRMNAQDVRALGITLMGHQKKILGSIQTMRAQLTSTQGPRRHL

[13] = target: High affinity nerve growth factor receptor (Homo sapiens) (UniProt P04629); details: Compound concentration 1000.0 nM
[14] = target: Serine/threonine-protein kinase Nek6 (Homo sapiens) (UniProt Q9HC98); details: Compound concentration 1000.0 nM
[15] = target: Tyrosine-protein kinase receptor TYRO3 (Homo sapiens) (UniProt Q06418); details: Compound concentration 1000.0 nM
[16] = target: Myosin light chain kinase 2, skeletal/cardiac muscle (Homo sapiens) (UniProt Q9H1R3); details: Compound concentration 1000.0 nM
[17] = target: Insulin receptor (Homo sapiens) (UniProt P06213); details: Compound concentration 1000.0 nM
[18] = target: Serine/threonine-protein kinase Nek9 (Homo sapiens) (UniProt Q8TD19); details: Compound concentration 1000.0 nM
[19] = target: Mast/stem cell growth factor receptor Kit (Homo sapiens) (UniProt P10721); details: Compound concentration 1000.0 nM
[20] = target: Mitogen-activated protein kinase 7 (Homo sapiens) (UniProt Q13164); details: Compound concentration 1000.0 nM
[21] = target: Phosphatidylinositol 5-phosphate 4-kinase type-2 beta (Homo sapiens) (UniProt P78356); details: Compound concentration 1000.0 nM
[22] = target: Uncharacterized serine/threonine-protein kinase SBK3 (Homo sapiens) (UniProt P0C264); details: Compound concentration 1000.0 nM
Sequence of Uncharacterized serine/threonine-protein kinase SBK3 (Homo sapiens) (P0C264 whole entry): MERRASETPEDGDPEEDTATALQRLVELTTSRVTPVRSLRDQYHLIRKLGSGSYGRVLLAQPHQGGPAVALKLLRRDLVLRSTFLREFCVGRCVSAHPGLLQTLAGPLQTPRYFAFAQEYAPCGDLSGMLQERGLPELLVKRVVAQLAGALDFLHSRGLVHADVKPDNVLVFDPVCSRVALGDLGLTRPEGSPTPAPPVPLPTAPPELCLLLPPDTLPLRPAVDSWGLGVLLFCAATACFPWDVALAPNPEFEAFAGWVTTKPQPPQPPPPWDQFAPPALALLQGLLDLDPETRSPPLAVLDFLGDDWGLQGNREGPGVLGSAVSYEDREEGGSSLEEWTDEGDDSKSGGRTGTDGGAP

[23] = target: Cyclin-dependent kinase 2 (Homo sapiens) (UniProt P24941); details: Compound concentration 1000.0 nM
[24] = target: Tyrosine-protein kinase JAK1 (Homo sapiens) (UniProt P23458); details: Compound concentration 1000.0 nM
[25] = target: Serine/threonine-protein kinase Chk1 (Homo sapiens) (UniProt O14757); details: Compound concentration 1000.0 nM
[26] = target: Interleukin-1 receptor-associated kinase 3 (Homo sapiens) (UniProt Q9Y616); details: Compound concentration 1000.0 nM
[27] = target: Tyrosine-protein kinase ABL1 (Homo sapiens) (UniProt P00519); details: Compound concentration 1000.0 nM
[28] = target: 5-hydroxytryptamine receptor 2B (Homo sapiens) (UniProt P41595); experiment: 5-HT2B (h) Eurofins-Cerep Cellular and Nuclear Receptor Functional Assays; details: Compound concentration 10.0 uM
Sequence of 5-hydroxytryptamine receptor 2B (Homo sapiens) (P41595 whole entry): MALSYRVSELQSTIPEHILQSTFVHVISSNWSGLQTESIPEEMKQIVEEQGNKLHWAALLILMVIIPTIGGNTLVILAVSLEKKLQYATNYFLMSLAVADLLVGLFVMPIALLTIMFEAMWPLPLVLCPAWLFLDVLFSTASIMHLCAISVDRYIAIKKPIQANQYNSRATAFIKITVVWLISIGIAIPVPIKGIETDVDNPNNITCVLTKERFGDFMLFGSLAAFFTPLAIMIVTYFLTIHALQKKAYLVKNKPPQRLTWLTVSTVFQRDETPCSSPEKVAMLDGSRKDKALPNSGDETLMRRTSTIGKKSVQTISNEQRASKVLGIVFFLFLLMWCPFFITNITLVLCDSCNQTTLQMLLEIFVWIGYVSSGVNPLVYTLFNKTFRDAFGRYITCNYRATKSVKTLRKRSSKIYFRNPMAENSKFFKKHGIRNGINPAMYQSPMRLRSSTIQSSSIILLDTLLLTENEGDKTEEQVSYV

[29] = target: 5-hydroxytryptamine receptor 1D (Homo sapiens) (UniProt P28221); details: Compound concentration 10.0 uM
Sequence of 5-hydroxytryptamine receptor 1D (Homo sapiens) (P28221 whole entry): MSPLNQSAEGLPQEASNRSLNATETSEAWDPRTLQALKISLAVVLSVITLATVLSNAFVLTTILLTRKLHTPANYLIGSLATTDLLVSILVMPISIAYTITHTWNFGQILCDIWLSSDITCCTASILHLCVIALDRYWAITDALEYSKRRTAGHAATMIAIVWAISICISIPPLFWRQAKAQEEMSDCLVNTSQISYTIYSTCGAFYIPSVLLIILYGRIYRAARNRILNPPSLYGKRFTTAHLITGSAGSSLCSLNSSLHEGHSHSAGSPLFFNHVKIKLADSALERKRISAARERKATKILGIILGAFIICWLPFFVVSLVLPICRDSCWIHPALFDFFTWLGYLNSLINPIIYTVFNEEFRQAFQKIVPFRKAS

[30] = target: Serine/threonine-protein kinase pim-3 (Homo sapiens) (UniProt Q86V86); details: Compound concentration 1000.0 nM
[31] = target: Dual serine/threonine and tyrosine protein kinase (Homo sapiens) (UniProt Q6XUX3); details: Compound concentration 1000.0 nM
[32] = target: Mitogen-activated protein kinase 1 (Homo sapiens) (UniProt P28482); details: Compound concentration 1000.0 nM
[33] = target: Cyclin-dependent kinase-like 1 (Homo sapiens) (UniProt Q00532); details: Compound concentration 1000.0 nM
Sequence of Cyclin-dependent kinase-like 1 (Homo sapiens) (Q00532 whole entry): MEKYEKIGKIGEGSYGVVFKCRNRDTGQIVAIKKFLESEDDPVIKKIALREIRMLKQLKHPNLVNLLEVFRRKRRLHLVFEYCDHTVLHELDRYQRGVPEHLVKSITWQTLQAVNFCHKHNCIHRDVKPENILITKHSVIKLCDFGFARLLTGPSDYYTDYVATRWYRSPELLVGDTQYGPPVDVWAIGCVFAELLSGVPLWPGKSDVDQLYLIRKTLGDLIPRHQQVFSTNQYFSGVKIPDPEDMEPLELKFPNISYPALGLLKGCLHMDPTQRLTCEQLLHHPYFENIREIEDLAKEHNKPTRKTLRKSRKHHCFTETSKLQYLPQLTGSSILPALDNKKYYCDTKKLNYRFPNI

[34] = target: Homeodomain-interacting protein kinase 3 (Homo sapiens) (UniProt Q9H422); details: Compound concentration 1000.0 nM
[35] = target: Receptor tyrosine-protein kinase erbB-3 (Homo sapiens) (UniProt P21860); details: Compound concentration 1000.0 nM
[36] = target: NT-3 growth factor receptor (Homo sapiens) (UniProt Q16288); details: Compound concentration 1000.0 nM
[37] = tested on: ALK tyrosine kinase receptor (Homo sapiens), Q9UM73 [L1196M]; details: Compound concentration 1000.0 nM
Sequence of ALK tyrosine kinase receptor (Homo sapiens), Q9UM73 [L1196M] (Q9UM73 whole entry L1196M, looked up): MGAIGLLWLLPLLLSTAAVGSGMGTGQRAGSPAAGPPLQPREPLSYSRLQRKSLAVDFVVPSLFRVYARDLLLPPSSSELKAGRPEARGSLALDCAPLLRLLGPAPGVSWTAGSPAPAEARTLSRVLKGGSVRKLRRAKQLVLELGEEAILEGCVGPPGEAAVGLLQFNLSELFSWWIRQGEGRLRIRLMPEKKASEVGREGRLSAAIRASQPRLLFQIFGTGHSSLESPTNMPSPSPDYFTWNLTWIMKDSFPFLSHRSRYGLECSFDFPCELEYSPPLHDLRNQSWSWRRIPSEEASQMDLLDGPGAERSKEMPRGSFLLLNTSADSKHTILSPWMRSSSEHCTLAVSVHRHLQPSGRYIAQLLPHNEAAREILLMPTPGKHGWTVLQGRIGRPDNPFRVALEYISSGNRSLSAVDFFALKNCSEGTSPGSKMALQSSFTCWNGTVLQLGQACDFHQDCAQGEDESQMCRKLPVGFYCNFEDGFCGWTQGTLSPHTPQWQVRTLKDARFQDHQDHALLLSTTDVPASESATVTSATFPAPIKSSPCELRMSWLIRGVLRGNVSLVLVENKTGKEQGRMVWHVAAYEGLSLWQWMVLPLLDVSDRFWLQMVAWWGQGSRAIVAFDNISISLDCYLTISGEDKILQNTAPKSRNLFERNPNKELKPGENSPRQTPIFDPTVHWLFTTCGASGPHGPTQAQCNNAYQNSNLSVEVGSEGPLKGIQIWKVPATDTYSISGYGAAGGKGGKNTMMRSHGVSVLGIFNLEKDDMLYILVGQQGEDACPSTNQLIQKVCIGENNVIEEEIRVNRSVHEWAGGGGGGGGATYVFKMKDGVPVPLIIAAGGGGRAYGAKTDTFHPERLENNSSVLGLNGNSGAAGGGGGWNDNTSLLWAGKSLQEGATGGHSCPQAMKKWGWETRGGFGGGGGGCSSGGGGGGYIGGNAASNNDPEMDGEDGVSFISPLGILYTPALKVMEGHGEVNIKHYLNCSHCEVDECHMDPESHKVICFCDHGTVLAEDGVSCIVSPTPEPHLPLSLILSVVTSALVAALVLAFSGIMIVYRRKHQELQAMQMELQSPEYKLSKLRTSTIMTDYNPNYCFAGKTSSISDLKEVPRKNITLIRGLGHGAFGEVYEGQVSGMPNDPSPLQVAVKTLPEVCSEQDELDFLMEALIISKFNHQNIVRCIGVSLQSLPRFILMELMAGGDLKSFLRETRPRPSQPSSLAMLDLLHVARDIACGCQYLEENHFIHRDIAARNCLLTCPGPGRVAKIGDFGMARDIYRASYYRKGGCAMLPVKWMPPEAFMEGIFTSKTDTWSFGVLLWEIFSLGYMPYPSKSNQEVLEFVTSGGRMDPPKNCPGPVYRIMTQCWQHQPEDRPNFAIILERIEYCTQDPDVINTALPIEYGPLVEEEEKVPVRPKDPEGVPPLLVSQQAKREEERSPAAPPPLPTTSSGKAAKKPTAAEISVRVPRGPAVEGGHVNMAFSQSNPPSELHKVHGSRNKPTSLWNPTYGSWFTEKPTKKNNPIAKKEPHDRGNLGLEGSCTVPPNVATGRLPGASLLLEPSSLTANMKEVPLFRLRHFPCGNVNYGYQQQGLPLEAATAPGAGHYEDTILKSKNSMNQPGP

[38] = tested on: Mast/stem cell growth factor receptor Kit (Homo sapiens), P10721 [A829P]; details: Compound concentration 1000.0 nM
[39] = target: Focal adhesion kinase 1 (Homo sapiens) (UniProt Q05397); details: Compound concentration 1000.0 nM
[40] = target: Melanocortin receptor 4 (Homo sapiens) (UniProt P32245); experiment: MC4 (h) Eurofins-Cerep Cellular and Nuclear Receptor Functional Assays; details: Compound concentration 10.0 uM
Sequence of Melanocortin receptor 4 (Homo sapiens) (P32245 whole entry): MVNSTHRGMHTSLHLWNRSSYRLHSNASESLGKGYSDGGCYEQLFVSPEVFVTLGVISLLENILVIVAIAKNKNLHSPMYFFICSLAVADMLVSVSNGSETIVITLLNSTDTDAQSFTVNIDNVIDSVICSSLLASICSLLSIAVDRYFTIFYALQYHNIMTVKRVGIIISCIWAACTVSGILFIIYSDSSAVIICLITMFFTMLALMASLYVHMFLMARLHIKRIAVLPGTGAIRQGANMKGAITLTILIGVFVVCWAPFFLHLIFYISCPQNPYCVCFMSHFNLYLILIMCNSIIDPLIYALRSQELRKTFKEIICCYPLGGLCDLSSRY

[41] = target: 5'-AMP-activated protein kinase catalytic subunit alpha-2 (Homo sapiens) (UniProt P54646); details: Compound concentration 1000.0 nM
[42] = target: Serine/threonine-protein kinase 25 (Homo sapiens) (UniProt O00506); details: Compound concentration 1000.0 nM
[43] = target: Receptor tyrosine-protein kinase erbB-4 (Homo sapiens) (UniProt Q15303); details: Compound concentration 1000.0 nM
[44] = tested on: Receptor-type tyrosine-protein kinase FLT3 (Homo sapiens), P36888 [UNDEFINED MUTATION]; details: Compound concentration 1000.0 nM

O=C(N1CCS(=O)(=O)CC1)N1C[C@H](c2ccc(OC(F)(F)F)cc2)C[C@H](c2nc(C3CC3)no2)C1 [BAY-386]
residual activity [1]: 83% | residual activity [2]: 80% | residual activity [3]: 100% | residual activity [4]: 58% | residual activity [5]: 100% | residual activity [6]: 97% | residual activity [7]: 100% | inhibition [8]: -4.72% | residual activity [9]: 100% | residual activity [10]: 100% | residual activity [11]: 100% | residual activity [12]: 100% | residual activity [13]: 87% | residual activity [14]: 98% | residual activity [15]: 98% | residual activity [16]: 100% | residual activity [17]: 94% | residual activity [18]: 100% | residual activity [19]: 100% | residual activity [20]: 100% | residual activity [21]: 73% | residual activity [22]: 98% | residual activity [23]: 100% | residual activity [24]: 88% | residual activity [25]: 100% | residual activity [26]: 100% | residual activity [27]: 92% | % Inhibition of Control Agonist Response (Mean n=2) [28]: 7% | % of Control Agonist Response (Mean n=2) [28]: 1.6% | inhibition [29]: 5.17% | residual activity [30]: 100% | residual activity [31]: 100% | residual activity [32]: 95% | residual activity [33]: 100% | residual activity [34]: 100% | residual activity [35]: 100% | residual activity [36]: 100% | residual activity [37]: 65% | residual activity [38]: 100% | residual activity [39]: 93% | % Inhibition of Control Agonist Response (Mean n=2) [40]: -8.1% | % of Control Agonist Response (Mean n=2) [40]: -1.2% | residual activity [41]: 100% | residual activity [42]: 93% | residual activity [43]: 95% | residual activity [44]: 100%

Cc1noc([C@H]2C[C@@H](c3ccc(C(F)(F)F)cc3)CN(C(=O)N3CCS(=O)(=O)C3)C2)n1 [BAY-448]
residual activity [1]: 72% | residual activity [2]: 100% | residual activity [3]: 90% | residual activity [4]: 77% | residual activity [5]: 100% | residual activity [6]: 100% | residual activity [7]: 66% | inhibition [8]: -2.74% | residual activity [9]: 91% | residual activity [10]: 100% | residual activity [11]: 84% | residual activity [12]: 100% | residual activity [13]: 90% | residual activity [14]: 100% | residual activity [15]: 100% | residual activity [16]: 100% | residual activity [17]: 85% | residual activity [18]: 100% | residual activity [19]: 84% | residual activity [20]: 87% | residual activity [21]: 100% | residual activity [22]: 84% | residual activity [23]: 100% | residual activity [24]: 98% | residual activity [25]: 100% | residual activity [26]: 100% | residual activity [27]: 100% | % Inhibition of Control Agonist Response (Mean n=2) [28]: -3% | % of Control Agonist Response (Mean n=2) [28]: 0.4% | inhibition [29]: -9.27% | residual activity [30]: 91% | residual activity [31]: 94% | residual activity [32]: 100% | residual activity [33]: 100% | residual activity [34]: 96% | residual activity [35]: 100% | residual activity [36]: 100% | residual activity [37]: 100% | residual activity [38]: 100% | residual activity [39]: 100% | % Inhibition of Control Agonist Response (Mean n=2) [40]: 14.3% | % of Control Agonist Response (Mean n=2) [40]: -1.8% | residual activity [41]: 66% | residual activity [42]: 89% | residual activity [43]: 100% | residual activity [44]: 100%
